The source made the active and inactive calls. No cut-off for these calls is given here.

Assay [1] addresses T1, Protein cereblon/Tribbles homolog 2 (Homo sapiens, UniProt Q96SW2+Q92519). In words: PROTAC activity at CRBN/TRIB2 in human PC-3 cells assessed as induction of TRIB2 degradation by measuring maximal efficacy at 100 nM measured after 24 hrs by immunoblot analysis relative to control. In kind it is cell-based. Background: Immunoblotting shows a protein as a band on a membrane.
Target sequence in this assay (Q96SW2 whole entry, looked up, one chain of several): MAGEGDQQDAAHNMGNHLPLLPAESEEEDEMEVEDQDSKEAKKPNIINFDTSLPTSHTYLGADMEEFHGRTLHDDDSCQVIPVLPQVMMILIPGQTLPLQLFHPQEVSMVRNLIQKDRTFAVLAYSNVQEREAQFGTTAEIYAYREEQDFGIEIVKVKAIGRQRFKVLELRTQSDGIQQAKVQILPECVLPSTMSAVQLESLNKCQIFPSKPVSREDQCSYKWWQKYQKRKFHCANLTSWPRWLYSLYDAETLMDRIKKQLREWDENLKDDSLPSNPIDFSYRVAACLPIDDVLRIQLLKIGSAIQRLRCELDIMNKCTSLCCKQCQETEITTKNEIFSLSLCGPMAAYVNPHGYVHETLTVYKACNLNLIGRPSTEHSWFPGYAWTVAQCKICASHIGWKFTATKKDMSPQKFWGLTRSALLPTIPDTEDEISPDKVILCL

Assay [2] can be described thus: Antiproliferative activity against human LTL-331R-CL cells assessed as cell viability for 5 days by CTG assay. In kind it is functional, cell-based. As to conditions: 120 h.
Assay [3] concerns PC-3. In words: Antiproliferative activity against human PC-3 cells assessed as cell viability for 5 days by CTG assay. The conditions noted are these: PC-3, 120 h. In kind it is functional, cell-based.
Assay [4] deals with T1, Protein cereblon/Tribbles homolog 2. In words: PROTAC activity at CRBN/TRIB2 in human PC-3 cells assessed as induction of TRIB2 degradation by measuring maximal efficacy at 1 nM measured after 24 hrs by immunoblot analysis relative to control. In kind it is cell-based.
Target sequence in this assay (Q96SW2 whole entry, looked up, one chain of several): as above
For assay [5] the target is unchanged. In words: PROTAC activity at CRBN/TRIB2 in human PC-3 cells assessed as induction of TRIB2 degradation for 24 hrs by immunoblot analysis. In kind it is cell-based.
The target is the same in assay [6]. In words: PROTAC activity at CRBN/TRIB2 in human NCI-H660 cells assessed as induction of TRIB2 degradation at 1 uM by immunoblotting analysis. In kind it is cell-based.
Target sequence in this assay (Q96SW2 whole entry, looked up, one chain of several): as above
Assay [7] has the same target. In words: PROTAC activity at CRBN/TRIB2 in human LTL-331R-CL cells assessed as induction of TRIB2 degradation at 1 uM by immunoblotting analysis. Type of assay: cell-based.
Target sequence in this assay (Q96SW2 whole entry, looked up, one chain of several): as above
The target in assay [8] is T2, von Hippel-Lindau disease tumor suppressor/Tribbles homolog 2 (Homo sapiens) (UniProt P40337+Q92519). In words: PROTAC activity at VHL/TRIB2 in human PC-3 cells assessed as induction of TRIB2 downregulation at 1000 nM for 24 hrs by immunoblotting analysis. In kind it is cell-based.
T2 sequence (P40337 whole entry, looked up, one chain of several): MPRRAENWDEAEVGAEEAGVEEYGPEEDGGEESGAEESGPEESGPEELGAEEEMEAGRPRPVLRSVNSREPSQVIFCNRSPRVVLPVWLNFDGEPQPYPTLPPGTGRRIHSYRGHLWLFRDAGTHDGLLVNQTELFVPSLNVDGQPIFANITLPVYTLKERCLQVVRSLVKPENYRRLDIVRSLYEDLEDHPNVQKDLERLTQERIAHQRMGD
Assay [9] concerns the target T2, von Hippel-Lindau disease tumor suppressor/Tribbles homolog 2 (Homo sapiens). In words: PROTAC activity at VHL/TRIB2 in human PC-3 cells assessed as induction of TRIB2 degradation at 100 nM for 24 hrs by immunoblotting analysis. Type of assay: cell-based.
The target in assay [10] is T1, Protein cereblon/Tribbles homolog 2. In words: PROTAC activity at CRBN/TRIB2 in human PC-3 cells assessed as half maximal degradation by measuring half life at 500 nM by immunoblotting analysis. In kind it is cell-based.
Target sequence in this assay (Q96SW2 whole entry, looked up, one chain of several): as the sequence (Q96SW2 whole entry, looked up, one chain of several) above
Assay [11] has as its target T3, Tribbles homolog 2 (Homo sapiens) (UniProt Q92519).
T3 sequence (whole entry): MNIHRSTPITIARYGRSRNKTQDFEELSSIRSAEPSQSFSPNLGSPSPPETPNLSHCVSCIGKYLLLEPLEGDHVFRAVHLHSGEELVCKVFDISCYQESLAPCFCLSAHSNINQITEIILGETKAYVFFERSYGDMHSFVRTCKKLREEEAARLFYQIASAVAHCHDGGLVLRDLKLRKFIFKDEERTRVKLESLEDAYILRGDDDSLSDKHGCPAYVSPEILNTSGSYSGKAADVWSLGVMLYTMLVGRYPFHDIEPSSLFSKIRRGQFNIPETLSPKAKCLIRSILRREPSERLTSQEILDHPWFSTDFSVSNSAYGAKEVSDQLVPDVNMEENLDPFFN
In words: Induction of thermal stabilization of TRIB2 in human PC-3 cells […] at 2 uM preincubated for 3 hrs followed by compound washout and incubated under 45 to 50 degreeC for 3 mins by CETSA based immunoblotting analysis. In kind it is cell-based.

For assay [12], the target named is T1, Protein cereblon/Tribbles homolog 2. In words: PROTAC activity at CRBN/TRIB2 in human PC-3 cells assessed as induction of TRIB2 degradation at 500 nM in presence of 1 uM bortezomib proteasome inhibitor pretreatment for 16 hrs by Western blot analysis. In kind it is cell-based.
Target sequence in this assay (Q96SW2 whole entry, looked up, one chain of several): as the sequence (Q96SW2 whole entry, looked up, one chain of several) above
Assay [13] has the same target. In words: PROTAC activity at CNRB/TRIB2 in human PC-3 cells assessed as induction of TRIB2 degradation at 0.5 uM pretreated with pomalidomide followed by compound addition and measured after 16 hrs by immunoblotting assay. In kind it is cell-based.
The target is the same in assay [14]. In words: PROTAC activity at CNRB/TRIB2 in human LTL-331R-CL cells assessed as induction of TRIB2 degradation at 1 uM for 4 hrs by immunoblotting assay. In kind it is cell-based.
The subject of assay [15] is PC-3. In words: Antiproliferative activity against human PC-3 cells assessed as cell viability at 1 uM by CTG assay. Type of assay: functional, cell-based.
A further assay deals with LTL-331R-CL. In words: Antiproliferative activity against human LTL-331R-CL cells assessed as cell viability at 1 uM by CTG assay. In kind it is functional, cell-based.
The target in assay [16] is T1, Protein cereblon/Tribbles homolog 2. In words: PROTAC activity at CNRB/TRIB2 in human LTL-331R-CL cells assessed as induction of TRIB2 degradation at 1 uM for 4 hrs by comprehensive proteomic analysis using a tandem mass tag (TMT) labeled mass spectrometry. Type of assay: cell-based.
For another assay, the system named is A549. In words: Antiproliferative activity against human A549 cells assessed as cell viability. Type of assay: functional.
For the next assay, the system named is HepG2. In words: Antiproliferative activity against human HepG2 cells assessed as cell viability. In kind it is functional.
In another assay the target is T4, Tribbles homolog 2 (Homo sapiens, UniProt Q92519).
T4 sequence (Q92519 whole entry): T3 sequence (whole entry)
In words: Inhibition of TRIB2 (unknown origin) assessed as reduction in ATP binding affinity incubated for 120 mins in presence of Mg/ATP by radiometric kinase assay.

As for `O=C1CCC(N2C(=O)c3ccc(NCCCCCCCC(=O)N4CCc5ccc(NC(=O)c6n[nH]c7ccc(-c8cccnc8F)cc67)cc5C4)cc3C2=O)C(=O)N1` (stereo unspecified), the Emax in assay [1] worked out at 58.2%.
Take `Nc1cccc2c1C(=O)N(C1CCC(=O)NC1=O)C2=O` (stereo unspecified) [POMALIDOMIDE]: the concentration for half-maximal inhibition (IC50) in assay [2] was more than 30000 nM; in the assay with PC-3 [3], more than 5000 nM.
Regarding `O=C1CCC(N2C(=O)c3ccc(NCCCCCC(=O)N4CCc5ccc(NC(=O)c6n[nH]c7ccc(-c8cccnc8F)cc67)cc5C4)cc3C2=O)C(=O)N1` (stereo unspecified), the Emax turned out to be 24.5% in assay [4] and 85.6% in [1].
Turning to `O=C1CCC(N2C(=O)c3ccc(NCCCCCCCCCC(=O)N4CCc5ccc(NC(=O)c6n[nH]c7ccc(-c8cccnc8F)cc67)cc5C4)cc3C2=O)C(=O)N1` (stereo unspecified), the Emax in assay [1] was 92%. The Activity result in assay [5] is “Dose-dependent-effect”; in assay [6], “Time-dependent-effect”; in assay [8] it was “Active; Mild Trib2 Degradation Observed”; in [9] it was 100%. In addition, in assay [5], the 50% degradation concentration (DC50) was 16.8 nM. Also, the outcome (in assay [7]; in [11]; in [14]; in the assay with PC-3 [15]; in the assay on LTL-331R-CL; in assay [16]) was Active. Further, the T1/2 in [10] is more than 5.5 h. In addition, the outcome in assay [12] and in assay [13] was inactive. Also, the concentration for half-maximal inhibition (IC50) in [2] amounted to 30.4 nM; in the assay on PC-3 [3] it was 3.9 nM.
For `O=C1CCC(N2C(=O)c3ccc(NCCCC(=O)N4CCc5ccc(NC(=O)c6n[nH]c7ccc(-c8cccnc8F)cc67)cc5C4)cc3C2=O)C(=O)N1` (stereo unspecified), the maximum response (Emax) in assay [1] came out at 84.1%.
`CN1C(=O)CCC(N2C(=O)c3ccc(NCCCCCCCCCC(=O)N4CCc5ccc(NC(=O)c6n[nH]c7ccc(-c8cccnc8F)cc67)cc5C4)cc3C2=O)C1=O` (stereo unspecified): the figures for the IC50 (in [2]; in the assay with PC-3 [3]) were more than 30000 nM and more than 5000 nM, respectively.
As for `O=C(Nc1ccc2c(c1)CNCC2)c1n[nH]c2ccc(-c3cccnc3F)cc12`, the results for the Activity with A549 and with HepG2 were 12% and 10%, respectively. Besides, the outcome in assay [11] was Active. Besides, the IC50 at Tribbles homolog 2 was determined as 65.2 nM; in [2] it was 868 nM; with PC-3 [3], 802 nM.

For orientation: Emax means the greatest response seen or fitted, relative to the assay's reference. Broadly, the IC50 is the point on the concentration scale where inhibition reaches its midpoint. Usually DC50 stands for the concentration giving 50% degradation.

The values above are taken from ChEMBL document CHEMBL6096639, “Discovery of the first selective and potent PROTAC degrader for the pseudokinase TRIB2” (Eur J Med Chem, 2025).
